PMC7278020, “Triterpenic Acids as Non-Competitive α-Glucosidase Inhibitors from Boswellia elongata with Structure-Activity Relationship: In Vitro and In Silico Studies” (Biomolecules, 2020)
Like-named read-outs stand apart in the source and are kept apart here.

What was measured:
[1] = biological target: T1, α-Glucosidase enzyme (E.C. 3.2.1.20) (Saccharomyces cerevisiae, UniProt P53341); conditions: the previous investigation; acetyl group at C-3 position; cited from earlier work
T1 construct: purchased Sigma-Aldrich G0660-750UN

[2] = biological target: T1, α-Glucosidase enzyme (E.C. 3.2.1.20); test: biochemical
Procedure: (§1) α-Glucosidase enzyme (E.C. 3.2.1.20) from Saccharomyces cerevisiae were purchased from Sigma-Aldrich (Darmstadt, Hesse, Germany) with product number of G0660-750UN and their inhibition assay was carried out by using 0.1 M phosphate buffer (pH 6.8) solution at 37 °C. […] For the kinetics studies, different concentrations (0.1, 0.2, 0.4 and 0.8 mM) of p-nitrophenyl-α-D-glucopyranoside (substrate) were used. In control the tested compounds were replaced with DMSO-d6 (7.5% final). […] Three time the experiment was repeated having triplicate of each samples. The % inhibition was calculated by using the following formula:% Inhibition = 100 − (OD test well/OD control) ×100 (OD = Optical density)

[3] = biological target: T2, α-glucosidase enzyme (Saccharomyces cerevisiae, UniProt P53341); test: Kinetics studies on α-glucosidase (Lineweaver–Burk, secondary replot, Dixon plot); assay type: biochemical; conditions: for Type of Inhibition: Lineweaver–Burk plots
T2 construct: purchased Sigma-Aldrich G0660-750UN
Procedure: as §1
The type of inhibition was determined by Lineweaver–Burk plots, the reciprocal of the rate of the reaction was plotted against the reciprocal of substrate concentrations to monitor the effect of inhibitor on both Km and Vmax. […] In non-competitive inhibition, the Vmax of enzyme decreased, while Km are not affected. […] The secondary replots of Lineweaver–Burk plots were used to determine the Ki values.

[4] = biological target: T2, α-glucosidase enzyme; parameters: method as in PMID 29030193; conditions: cited from earlier work
[5] = pH 6.8, 37 °C, substrate p-nitrophenyl-α-D-glucopyranoside 0.7 mM, NA = Not active, read-out: IC50 = µM ± SEM
[6] = substrate 0.1, 0.2, 0.4 and 0.8 mM, read-out: Ki = µM ± SEM

T1 sequence (P53341 whole entry): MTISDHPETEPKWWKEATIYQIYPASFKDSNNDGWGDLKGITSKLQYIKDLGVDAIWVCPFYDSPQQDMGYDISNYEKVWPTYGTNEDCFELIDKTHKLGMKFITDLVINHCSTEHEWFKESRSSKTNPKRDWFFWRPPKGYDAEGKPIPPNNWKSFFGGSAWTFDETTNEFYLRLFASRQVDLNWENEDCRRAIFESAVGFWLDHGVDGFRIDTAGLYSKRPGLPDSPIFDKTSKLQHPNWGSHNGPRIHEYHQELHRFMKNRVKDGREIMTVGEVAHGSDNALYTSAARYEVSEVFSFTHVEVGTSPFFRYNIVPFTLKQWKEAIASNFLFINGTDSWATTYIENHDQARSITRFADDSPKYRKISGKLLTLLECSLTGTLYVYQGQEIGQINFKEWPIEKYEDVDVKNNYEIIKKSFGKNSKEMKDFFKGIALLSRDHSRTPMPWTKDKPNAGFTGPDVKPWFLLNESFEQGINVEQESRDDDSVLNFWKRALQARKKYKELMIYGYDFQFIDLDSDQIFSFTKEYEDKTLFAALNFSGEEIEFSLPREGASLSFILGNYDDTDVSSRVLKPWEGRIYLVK
T2 sequence (P53341 whole entry): as above

CC(=O)O[C@@H]1CC[C@@]2(C)[C@@H](CC[C@]3(C)[C@@H]2C(=O)C=C2[C@@H]4[C@@H](C)[C@H](C)CC[C@]4(C)CC[C@]23C)[C@@]1(C)C(=O)O [Compound 7, 3-Acetyl 11-keto-β-boswellic acid]
glucosidase inhibition (in words) [1]: most promising glucosidase inhibitors

C[C@@H]1CC[C@]2(C)CC[C@]3(C)C(=CC=C4[C@@]5(C)CC[C@@H](O)[C@](C)(C(=O)O)C5CC[C@]43C)C2[C@H]1C (stereo partly drawn) [Compound 5, 9,11-Dehydro-β-boswellic acid]
IC50 [2, 5]: 20.9 ± 0.05 µM
Type of Inhibition [3]: Non-competitive
Ki [3, 6]: 15.3 ± 0.54 µM

C[C@H]1[C@H](C)CC[C@]2(C(=O)O)CC[C@]3(C)C(=CC[C@@H]4[C@@]5(C)CC[C@H](O)C(C)(C)[C@@H]5CC[C@]43C)[C@H]12 [ursolic acid]
Type of inhibition of α-glucosidase (literature) [4]: non-competitive inhibitors

CC(=O)O[C@@H]1CC[C@]2(C)C3=CC=C4C5[C@@H](C)[C@H](C)CC[C@]5(C)CC[C@@]4(C)[C@]3(C)CCC2[C@@]1(C)C(=O)O (stereo partly drawn) [Compound 4, 3-O-Acetyl-9,11-dehydro-β-boswellic acid]
IC50 [2]: 9.9 ± 0.48 µM
times more active than the standard inhibitor acarbose ([2]; from IC50 values): 94 times
Ki [3]: 7.05 ± 0.75 µM
Type of Inhibition [3]: Non-competitive

CC(=O)OC1CCC2(C)C3=C(CCC2C1(C)C)C1(C)CCC(C(C)CCC=C(C)C)C1(C)CC3 (stereo not drawn) [Compound 1, 5α-tirucalla-8,24-dien-3α-acetate]
inhibition at 1000 µM [2]: < 50%
IC50 = µM ± SEM ([2]; pH 6.8, 37 °C, substrate p-nitrophenyl-α-D-glucopyranoside 0.7 mM, NA = Not active): inactive

CC(C)=CCC[C@H](C)C1CC[C@]2(C)C3=C(CC[C@@]12C)[C@@]1(C)CC[C@@H](O)C(C)(C)C1CC3 (stereo partly drawn) [Compound 2, 5α-Tirucalla-8,24-dien-3α-ol]
inhibition at 1000 µM [2]: < 50%

CC1(C)CC[C@]2(C(=O)O)CC[C@]3(C)C(=CC[C@@H]4[C@@]5(C)CC[C@H](O)C(C)(C)[C@@H]5CC[C@]43C)[C@@H]2C1 [oleanolic acid]
Type of inhibition of α-glucosidase (literature) [4]: non-competitive inhibitors

CC(=O)O[C@@H]1CC[C@@]2(C)[C@@H](CC[C@]3(C)[C@@H]2CC=C2[C@@H]4CC(C)(C)CC[C@]4(C)CC[C@]23C)[C@@]1(C)C(=O)O [Compound 12, 3-Acetyl-α-boswellic acid]
glucosidase inhibition (in words) [1]: most promising glucosidase inhibitors

C[C@@H]1CC[C@H]2[C@@H]1C1C(CC[C@]2(C)O)C1(C)C (some centres unmarked) [Compound 19, Viridiflorol]
inhibition at 1000 µM [2]: < 50%

CC(=O)O[C@@H]1CC[C@@]2(C)[C@@H](CC[C@]3(C)[C@@H]2CC=C2[C@@H]4[C@@H](C)[C@H](C)CC[C@]4(C)CC[C@]23C)[C@@]1(C)C(=O)O [Compound 6, 3-Acetyl-β-boswellic acid]
glucosidase inhibition (in words) [1]: most promising glucosidase inhibitors

C/C1=C\CC/C(C)=C/C[C@H](C(C)(C)O)CC/C(C)=C/CC1 [Compound 20, Iso-serratol]
inhibition at 1000 µM [2]: < 50%

CO[C@@H]1C=C2C3[C@@H](C)[C@H](C)CC[C@]3(C)CC[C@@]2(C)[C@]2(C)CCC3[C@](C)(CC[C@@H](O)[C@]3(C)C(=O)O)C12 (stereo partly drawn) [Compound 11, 11α-methoxy-β-boswellic acid]
IC50 [2]: 14.9 ± 1.31 µM
Ki [3]: 8.05 ± 0.38 µM
Type of Inhibition [3]: Non-competitive

CC(=O)O[C@@H]1CC[C@]2(C)C3=C(CCC2C1(C)C)[C@@]1(C)CCC([C@H](CCC=C(C)C)C(=O)O)[C@]1(C)CC3 (stereo partly drawn) [Compound 3, 3α-Acetoxytirucall-8,24-dien-21-oic acid]
IC50 [2, 5]: 56.8 ± 1.3 µM
Type of Inhibition [3]: Non-competitive
Ki [3, 6]: 51.1 ± 0.63 µM
